{"source": "PubChem BioAssay AID212", "about": "(DTP/NCI, 2004)", "system": "BDF1 mice, colon carcinoma 38 sc, T/C %", "test": "NCI In Vivo Anticancer Drug Screen. Data for tumor model Colon Carcinoma 38 (subcutaneous) in B6D2F1 (BDF1) mice", "experimental": "The antitumor activity of compounds was measured in mice bearing transplantable tumors. Survival or tumor size were measured and the results are expressed as the measurement made in the treated group (T) divided by the measurement made in the vehicle treated control group (C). The tumor model used in this assay is Colon Carcinoma 38 (subcutaneous) in B6D2F1 (BDF1) mice", "key": {"[1]": {"settings": "endpoint: median tumor weight (est.), dose: 12.5 mg/kg/injection, schedule: Q07DX002 (ip), vehicle: saline, higher = larger tumour"}, "[2]": {"settings": "endpoint: median tumor weight (est.), dose: 25.0 mg/kg/injection, schedule: Q07DX002 (ip), vehicle: saline, higher = larger tumour"}, "[3]": {"settings": "endpoint: median tumor weight (est.), dose: 50.0 mg/kg/injection, schedule: Q07DX002 (ip), vehicle: saline, higher = larger tumour"}, "[4]": {"settings": "endpoint: median tumor weight (est.), dose: 25.0 mg/kg/injection, schedule: Q07DX002 (ip), vehicle: saline with Tween-80, higher = larger tumour"}, "[5]": {"settings": "endpoint: median tumor weight (est.), dose: 50.0 mg/kg/injection, schedule: Q07DX002 (ip), vehicle: saline with Tween-80, higher = larger tumour"}, "[6]": {"settings": "endpoint: median tumor weight (est.), dose: 100.0 mg/kg/injection, schedule: Q07DX002 (ip), vehicle: saline with Tween-80, higher = larger tumour"}, "[7]": {"settings": "endpoint: median tumor weight (est.), dose: 200.0 mg/kg/injection, schedule: Q07DX002 (ip), vehicle: saline with Tween-80, higher = larger tumour"}, "[8]": {"settings": "endpoint: median tumor weight (est.), dose: 100.0 mg/kg/injection, schedule: Q07DX002 (ip), vehicle: saline, higher = larger tumour"}, "[9]": {"settings": "endpoint: median tumor weight (est.), dose: 200.0 mg/kg/injection, schedule: Q07DX002 (ip), vehicle: saline, higher = larger tumour"}}, "note": "Values joined by “and” are separate entries in the source; they are usually repeats but may differ in a detail not shown here. Equal values may be shown once. Inconclusive results are not listed."}
{"compound": "COc1ccc(-c2csc(=[N+]3CCCCC3)s2)cc1", "values": [{"measurement": "T/C", "setting": "endpoint: median tumor weight (est.), dose: 3.13 mg/kg/injection, schedule: Q07DX002 (ip), vehicle: water, higher = larger tumour", "result": "107 % of control"}, {"measurement": "T/C", "setting": "endpoint: median tumor weight (est.), dose: 6.25 mg/kg/injection, schedule: Q07DX002 (ip), vehicle: water, higher = larger tumour", "result": "105 % of control"}, {"measurement": "T/C", "setting": "endpoint: median tumor weight (est.), dose: 12.5 mg/kg/injection, schedule: Q07DX002 (ip), vehicle: water, higher = larger tumour", "result": "116 % of control"}, {"measurement": "T/C", "setting": "endpoint: median tumor weight (est.), dose: 25.0 mg/kg/injection, schedule: Q07DX002 (ip), vehicle: water, higher = larger tumour", "result": "123 % of control"}, {"measurement": "T/C", "setting": "endpoint: median tumor weight (est.), dose: 50.0 mg/kg/injection, schedule: Q07DX002 (ip), vehicle: water, higher = larger tumour", "result": "121 % of control"}]}
{"compound": "O=c1n(CC2CO2)c(=O)n(CC2CO2)n1CC1CO1", "note": "(stereo not drawn)", "values": [{"measurement": "T/C", "setting": "[1]", "result": "25 % of control"}, {"measurement": "T/C", "setting": "[2]", "result": "25 % of control"}, {"measurement": "T/C", "setting": "[3]", "result": "18 % of control"}]}
{"compound": "CCn1cnc2c(=S)nc[nH]c21", "values": [{"measurement": "T/C", "setting": "[4]", "result": "87 % of control"}, {"measurement": "T/C", "setting": "[5]", "result": "64 % of control"}, {"measurement": "T/C", "setting": "[6]", "result": "57 % of control"}, {"measurement": "T/C", "setting": "[7]", "result": "21 % of control"}]}
{"compound": "CN(N=O)C(=O)N[C@@H](C=O)[C@@H](O)[C@H](O)[C@H](O)CO", "values": [{"measurement": "T/C", "setting": "endpoint: median survival time, dose: 23.0 mg/kg/injection, schedule: Q01DX010 (sc), vehicle: other, higher = longer survival", "result": "110 % of control"}, {"measurement": "T/C", "setting": "endpoint: median survival time, dose: 37.0 mg/kg/injection, schedule: Q01DX010 (sc), vehicle: other, higher = longer survival", "result": "100 % of control"}, {"measurement": "T/C", "setting": "endpoint: median survival time, dose: 60.0 mg/kg/injection, schedule: Q01DX010 (sc), vehicle: other, higher = longer survival", "result": "115 % of control"}, {"measurement": "T/C", "setting": "endpoint: median tumor weight (est.), dose: 12.5 mg/kg/injection, schedule: Q07DX003 (ip), vehicle: other, higher = larger tumour", "result": "78 % of control"}, {"measurement": "T/C", "setting": "endpoint: median tumor weight (est.), dose: 25.0 mg/kg/injection, schedule: Q07DX003 (ip), vehicle: other, higher = larger tumour", "result": "54 % of control"}, {"measurement": "T/C", "setting": "endpoint: median tumor weight (est.), dose: 50.0 mg/kg/injection, schedule: Q07DX003 (ip), vehicle: other, higher = larger tumour", "result": "66 % of control"}, {"measurement": "T/C", "setting": "endpoint: median tumor weight (est.), dose: 100.0 mg/kg/injection, schedule: Q07DX003 (ip), vehicle: other, higher = larger tumour", "result": "56 % of control"}, {"measurement": "T/C", "setting": "endpoint: median tumor weight (est.), dose: 200.0 mg/kg/injection, schedule: Q07DX003 (ip), vehicle: other, higher = larger tumour", "result": "34 % of control"}]}
{"compound": "O=C(O)Cc1cccc2c(=O)cc(-c3ccc4ccccc4c3)oc12", "values": [{"measurement": "T/C", "setting": "[8]", "result": "104 % of control"}, {"measurement": "T/C", "setting": "[9]", "result": "59 % of control"}]}
{"compound": "CCCC(=O)Nc1ncnc2c1ncn2C1OC2COP(=O)(O)OC2C1OC(=O)CCC", "note": "(stereo not drawn)", "values": [{"measurement": "T/C", "setting": "[2]", "result": "84 % of control and 103 % of control"}, {"measurement": "T/C", "setting": "[8]", "result": "101 % of control and 106 % of control"}, {"measurement": "T/C", "setting": "endpoint: median tumor weight (est.), dose: 800.0 mg/kg/injection, schedule: Q07DX002 (ip), vehicle: saline, higher = larger tumour", "result": "75 % of control and 96 % of control"}]}
{"compound": "CN(C)c1ncnc2c1ncn2C1OC(CO)C(N)C1O", "note": "(stereo not drawn)", "values": [{"measurement": "T/C", "setting": "[1]", "result": "110 % of control"}, {"measurement": "T/C", "setting": "[2]", "result": "85 % of control"}, {"measurement": "T/C", "setting": "[3]", "result": "105 % of control"}, {"measurement": "T/C", "setting": "[8]", "result": "106 % of control"}, {"measurement": "T/C", "setting": "[9]", "result": "63 % of control"}]}
{"compound": "[CH3][Sn]([CH3])([Cl])[S]CCN", "values": [{"measurement": "T/C", "setting": "[1]", "result": "71 % of control"}, {"measurement": "T/C", "setting": "[2]", "result": "47 % of control"}, {"measurement": "T/C", "setting": "[3]", "result": "90 % of control"}]}
{"compound": "CN(C)CCOc1ccc2c(c1)C/C(=C/c1ncc([N+](=O)[O-])n1C)C2=O", "values": [{"measurement": "T/C", "setting": "endpoint: median tumor weight (est.), dose: 12.5 mg/kg/injection, schedule: Q07DX002 (ip), vehicle: saline with Tween-80, higher = larger tumour", "result": "76 % of control"}, {"measurement": "T/C", "setting": "[4]", "result": "94 % of control"}, {"measurement": "T/C", "setting": "[5]", "result": "106 % of control"}, {"measurement": "T/C", "setting": "[6]", "result": "91 % of control"}, {"measurement": "T/C", "setting": "[7]", "result": "106 % of control"}, {"measurement": "T/C", "setting": "endpoint: median tumor weight (est.), dose: 400.0 mg/kg/injection, schedule: Q07DX002 (ip), vehicle: saline with Tween-80, higher = larger tumour", "result": "50 % of control"}]}
{"compound": "COc1cc2c3c(cccc3c1)C(=O)N(CCN(C)C)C2=O", "values": [{"measurement": "T/C", "setting": "endpoint: median tumor weight (est.), dose: 10.0 mg/kg/injection, schedule: Q07DX002 (ip), vehicle: saline with Tween-80, higher = larger tumour", "result": "86 % of control and 103 % of control"}, {"measurement": "T/C", "setting": "endpoint: median tumor weight (est.), dose: 40.0 mg/kg/injection, schedule: Q07DX002 (ip), vehicle: saline with Tween-80, higher = larger tumour", "result": "73 % of control and 92 % of control"}, {"measurement": "T/C", "setting": "endpoint: median tumor weight (est.), dose: 80.0 mg/kg/injection, schedule: Q07DX002 (ip), vehicle: saline with Tween-80, higher = larger tumour", "result": "72 % of control"}, {"measurement": "T/C", "setting": "endpoint: median tumor weight (est.), dose: 160.0 mg/kg/injection, schedule: Q07DX002 (ip), vehicle: saline with Tween-80, higher = larger tumour", "result": "73 % of control"}]}
